From the OligoGym collection
HELM strings list units from the 5' end as sugar, base in round brackets, then linkage (d deoxyribose, r ribose, m 2'-O-methyl, p phosphodiester). Strings are as the collection lists them; they lack the last nucleoside at the 3' end of the tested compound. [moe] = 2'-O-(2-methoxyethyl) (MOE); [sp] = phosphorothioate linkage; [m5C] = 5-methylcytosine

Target: UBE3A-ATS
Experiment: mouse, dose not given
Details: ASO

In the case of “RNA1{[moe](G)[sp].[moe](A)p.[moe](G)p.[moe]([m5C])p.[moe](T)[sp].d(A)[sp].d(T)[sp].d([m5C])[sp].d(T)[sp].d(G)[sp].d(T)[sp].d(A)[sp].d([m5C])[sp].[moe](A)p.[moe](A)p.[moe](A)[sp].[moe](A)}$$$$ (last 3' nucleoside missing)”, the 3 h FOB score is reported as 6 score 0-7.
Work on “RNA1{[moe](G)[sp].[moe](A)p.[moe](G)p.[moe]([m5C])p.[moe](T)p.[moe](A)[sp].d(T)[sp].d([m5C])[sp].d(T)[sp].d(G)[sp].d(T)[sp].d(A)[sp].d([m5C])[sp].d(A)[sp].[moe](A)p.[moe](A)[sp].[moe](A)}$$$$ (last 3' nucleoside missing)” yielded a 3 h FOB score of 4.7 score 0-7.
In the case of “RNA1{[moe](G)[sp].[moe](A)p.[moe](G)p.[moe]([m5C])p.[moe](T)p.[moe](A)p.d(T)[sp].d([m5C])[sp].d(T)[sp].d(G)[sp].d(T)[sp].d(A)[sp].d([m5C])[sp].d(A)[sp].d(A)[sp].d(A)[sp].[moe](A)p.[moe](T)[sp].[moe](G)}$$$$ (last 3' nucleoside missing)”, the 3 h FOB score is reported as 5.2 score 0-7.
With “RNA1{[moe](G)[sp].[moe](A)p.[moe](G)p.[moe]([m5C])p.[moe](T)p.d(A)[sp].d(T)[sp].d([m5C])[sp].d(T)[sp].d(G)[sp].d(T)[sp].d(A)[sp].d([m5C])[sp].d(A)[sp].d(A)[sp].[moe](A)p.[moe](A)p.[moe](T)[sp].[moe](G)}$$$$ (last 3' nucleoside missing)” the 3 h FOB score was 6.7 score 0-7.
In the case of “RNA1{[moe](G)[sp].[moe](A)p.[moe](G)p.[moe]([m5C])p.d(T)[sp].d(A)[sp].d(T)[sp].d([m5C])[sp].d(T)[sp].d(G)[sp].d(T)[sp].d(A)[sp].d([m5C])[sp].d(A)[sp].[moe](A)p.[moe](A)p.[moe](A)p.[moe](T)[sp].[moe](G)}$$$$ (last 3' nucleoside missing)”, the 3 h FOB score is reported as 4.7 score 0-7.
“RNA1{[moe](G)[sp].[moe](A)p.[moe](T)p.[moe](A)p.[moe](G)p.d(G)[sp].d(G)[sp].d(T)[sp].d(T)[sp].d(T)[sp].d(A)[sp].d(G)[sp].d(G)[sp].d(T)[sp].d([m5C])[sp].[moe](A)p.[moe](A)p.[moe]([m5C])[sp].[moe]([m5C])}$$$$ (last 3' nucleoside missing)” gave a 3 h FOB score of 5 score 0-7.
“RNA1{[moe](G)[sp].[moe](A)p.[moe](T)p.[moe](T)p.[moe](A)p.d(T)[sp].d([m5C])[sp].d(T)[sp].d([m5C])[sp].d(A)[sp].d(G)[sp].d(A)[sp].d([m5C])[sp].d(A)[sp].d(T)[sp].[moe](G)p.[moe]([m5C])p.[moe]([m5C])[sp].[moe](A)}$$$$ (last 3' nucleoside missing)” gave a 3 h FOB score of 3.2 score 0-7.
“RNA1{[moe](G)[sp].[moe](A)p.[moe](T)p.[moe](T)p.[moe](G)p.d(A)[sp].d(T)[sp].d([m5C])[sp].d(A)[sp].d(T)[sp].d(G)[sp].d(T)[sp].d(T)[sp].d(A)[sp].d(T)[sp].[moe](G)p.[moe]([m5C])p.[moe]([m5C])[sp].[moe]([m5C])}$$$$ (last 3' nucleoside missing)” was tested, and the 3 h FOB score was 2 score 0-7.
Work on “RNA1{[moe](G)[sp].[moe](A)p.[moe](T)p.[moe](T)p.[moe](G)p.d(A)[sp].d([m5C])[sp].d(T)[sp].d(A)[sp].d([m5C])[sp].d(T)[sp].d(T)[sp].d([m5C])[sp].d(A)[sp].d(A)[sp].[moe]([m5C])p.[moe]([m5C])p.[moe](T)[sp].[moe](G)}$$$$ (last 3' nucleoside missing)” yielded a 3 h FOB score of 1.3 score 0-7.
Work on “RNA1{[moe](G)[sp].[moe](A)p.[moe](T)p.[moe](T)p.[moe](T)p.d(T)[sp].d(A)[sp].d(T)[sp].d(T)[sp].d(G)[sp].d(G)[sp].d(T)[sp].d([m5C])[sp].d(A)[sp].d(T)[sp].[moe]([m5C])p.[moe](T)p.[moe]([m5C])[sp].[moe](G)}$$$$ (last 3' nucleoside missing)” yielded a 3 h FOB score of 6.8 score 0-7.
“RNA1{[moe](G)[sp].[moe](A)p.[moe](T)p.[moe](T)p.[moe](T)p.d([m5C])[sp].d([m5C])[sp].d(T)[sp].d(T)[sp].d(A)[sp].d([m5C])[sp].d(T)[sp].d(G)[sp].d(A)[sp].d(G)[sp].[moe](T)p.[moe](G)p.[moe](A)[sp].[moe](G)}$$$$ (last 3' nucleoside missing)” gave a 3 h FOB score of 1 score 0-7.
“RNA1{[moe](G)[sp].[moe](A)p.[moe](T)p.[moe](T)p.[moe]([m5C])p.d(A)[sp].d(A)[sp].d(T)[sp].d(A)[sp].d(G)[sp].d(T)[sp].d(G)[sp].d(T)[sp].d(A)[sp].d(G)[sp].[moe](G)p.[moe](T)p.[moe](G)[sp].[moe](A)}$$$$ (last 3' nucleoside missing)” gave a 3 h FOB score of 3.3 score 0-7.
“RNA1{[moe](G)[sp].[moe](A)p.[moe](T)p.[moe]([m5C])[sp].d(A)[sp].d([m5C])[sp].d(A)[sp].d(T)[sp].d(T)[sp].d(A)[sp].d([m5C])[sp].d([m5C])[sp].[moe]([m5C])p.[moe](A)p.[moe](T)p.[moe]([m5C])[sp].[moe]([m5C])}$$$$ (last 3' nucleoside missing)” was tested, and the 3 h FOB score was 0 score 0-7.
“RNA1{[moe](G)[sp].[moe](A)p.[moe](T)p.[moe]([m5C])p.[moe](A)[sp].d([m5C])[sp].d(A)[sp].d(T)[sp].d(T)[sp].d(A)[sp].d([m5C])[sp].d([m5C])[sp].d([m5C])[sp].[moe](A)p.[moe](T)p.[moe]([m5C])[sp].[moe]([m5C])}$$$$ (last 3' nucleoside missing)” gave a 3 h FOB score of 2 score 0-7.
“RNA1{[moe](G)[sp].[moe](A)p.[moe](T)p.[moe]([m5C])p.[moe](A)p.[moe]([m5C])[sp].d(A)[sp].d(T)[sp].d(T)[sp].d(A)[sp].d([m5C])[sp].d([m5C])[sp].d([m5C])[sp].d(A)[sp].[moe](T)p.[moe]([m5C])[sp].[moe]([m5C])}$$$$ (last 3' nucleoside missing)” showed a 3 h FOB score of 0 score 0-7.
“RNA1{[moe](G)[sp].[moe](A)p.[moe](T)p.[moe]([m5C])p.[moe](A)p.[moe]([m5C])p.d(A)[sp].d(T)[sp].d(T)[sp].d(A)[sp].d([m5C])[sp].d([m5C])[sp].d([m5C])[sp].d(A)[sp].d(T)[sp].d([m5C])[sp].[moe]([m5C])p.[moe](G)[sp].[moe](T)}$$$$ (last 3' nucleoside missing)” was tested, and the 3 h FOB score was 0 score 0-7.
“RNA1{[moe](G)[sp].[moe](A)p.[moe](T)p.[moe]([m5C])p.[moe](A)p.d(T)[sp].d(G)[sp].d(T)[sp].d(G)[sp].d([m5C])[sp].d(A)[sp].d(T)[sp].d(A)[sp].d([m5C])[sp].d([m5C])[sp].[moe]([m5C])p.[moe](A)p.[moe](G)[sp].[moe](G)}$$$$ (last 3' nucleoside missing)” was tested, and the 3 h FOB score was 5.7 score 0-7.
With “RNA1{[moe](G)[sp].[moe](A)p.[moe](T)p.[moe]([m5C])p.[moe](A)p.d([m5C])[sp].d(A)[sp].d(T)[sp].d(T)[sp].d(A)[sp].d([m5C])[sp].d([m5C])[sp].d([m5C])[sp].d(A)[sp].d(T)[sp].[moe]([m5C])p.[moe]([m5C])p.[moe](G)[sp].[moe](T)}$$$$ (last 3' nucleoside missing)” the 3 h FOB score was 0 score 0-7.
For “RNA1{[moe](G)[sp].[moe](A)p.[moe](T)p.[moe]([m5C])p.[moe](T)p.d(T)[sp].d(G)[sp].d(G)[sp].d(T)[sp].d(A)[sp].d(A)[sp].d(G)[sp].d(G)[sp].d([m5C])[sp].d(A)[sp].[moe](G)p.[moe]([m5C])p.[moe](T)[sp].[moe]([m5C])}$$$$ (last 3' nucleoside missing)”, the 3 h FOB score was 6.8 score 0-7.
For “RNA1{[moe](G)[sp].[moe](A)p.[moe](T)p.[moe]([m5C])p.d(A)[sp].d([m5C])[sp].d(A)[sp].d(T)[sp].d(T)[sp].d(A)[sp].d([m5C])[sp].d([m5C])[sp].d([m5C])[sp].d(A)[sp].[moe](T)p.[moe]([m5C])p.[moe]([m5C])p.[moe](G)[sp].[moe](T)}$$$$ (last 3' nucleoside missing)”, the 3 h FOB score was 0 score 0-7.
“RNA1{[moe](G)[sp].[moe](A)p.[moe]([m5C])p.[moe](T)p.[moe](A)p.d(T)[sp].d([m5C])[sp].d(T)[sp].d([m5C])[sp].d(A)[sp].d(G)[sp].d([m5C])[sp].d(A)[sp].d([m5C])[sp].d(T)[sp].[moe](A)p.[moe](G)p.[moe](G)[sp].[moe](G)}$$$$ (last 3' nucleoside missing)” gave a 3 h FOB score of 2 score 0-7.
Work on “RNA1{[moe](G)[sp].[moe](A)p.[moe]([m5C])p.[moe](T)p.[moe](A)p.d([m5C])[sp].d(T)[sp].d(T)[sp].d([m5C])[sp].d(A)[sp].d(A)[sp].d([m5C])[sp].d([m5C])[sp].d(T)[sp].d(G)[sp].[moe](A)p.[moe](T)p.[moe](A)[sp].[moe]([m5C])}$$$$ (last 3' nucleoside missing)” yielded a 3 h FOB score of 2 score 0-7.
Work on “RNA1{[moe](G)[sp].[moe](G)p.[moe](A)p.[moe](A)p.[moe](G)p.d(G)[sp].d(A)[sp].d(A)[sp].d(A)[sp].d([m5C])[sp].d(A)[sp].d([m5C])[sp].d(A)[sp].d([m5C])[sp].d(A)[sp].[moe](T)p.[moe](A)p.[moe](A)[sp].[moe](T)}$$$$ (last 3' nucleoside missing)” yielded a 3 h FOB score of 0.5 score 0-7.
In the case of “RNA1{[moe](G)[sp].[moe](G)p.[moe](A)p.[moe](G)p.[moe](A)p.d([m5C])[sp].d(A)[sp].d(A)[sp].d(T)[sp].d([m5C])[sp].d(T)[sp].d(A)[sp].d(G)[sp].d(T)[sp].d(T)[sp].[moe](A)p.[moe](G)p.[moe](A)[sp].[moe]([m5C])}$$$$ (last 3' nucleoside missing)”, the 3 h FOB score is reported as 4 score 0-7.
“RNA1{[moe](G)[sp].[moe](G)p.[moe](A)p.[moe](G)p.[moe](G)p.d(G)[sp].d(A)[sp].d(G)[sp].d(G)[sp].d(A)[sp].d(A)[sp].d(A)[sp].d(A)[sp].d(T)[sp].d(T)[sp].[moe](A)p.[moe](T)p.[moe](T)[sp].[moe](T)}$$$$ (last 3' nucleoside missing)” was tested, and the 3 h FOB score was 0.5 score 0-7.
Substance “RNA1{[moe](G)[sp].[moe](G)p.[moe](A)p.[moe](T)p.[moe](G)p.d(G)[sp].d(T)[sp].d(G)[sp].d(T)[sp].d(G)[sp].d(T)[sp].d(A)[sp].d(T)[sp].d(G)[sp].d(T)[sp].[moe](T)p.[moe](A)p.[moe](T)[sp].[moe](G)}$$$$ (last 3' nucleoside missing)” has a 3 h FOB score of 4.7 score 0-7.
Substance “RNA1{[moe](G)[sp].[moe](G)p.[moe](A)p.[moe](T)p.[moe](G)p.d(G)[sp].d(T)[sp].d(T)[sp].d(G)[sp].d(A)[sp].d([m5C])[sp].d([m5C])[sp].d(T)[sp].d([m5C])[sp].d(A)[sp].[moe](A)p.[moe](A)p.[moe](A)[sp].[moe](T)}$$$$ (last 3' nucleoside missing)” has a 3 h FOB score of 3.8 score 0-7.
